Values quoted from earlier work as cited in patent US20220160728A1, “GENE THERAPY METHODS” (Homology Medicines, Inc., priority 2020, published 2022).

conditions: corticosteroid equivalency conversion values (prednisolone equivalents)

Going from `CC(=O)OCC(=O)[C@@]1(O)CC[C@H]2[C@@H]3CCC4=CC(=O)CC[C@]4(C)[C@H]3C(=O)C[C@@]21C` [Cortisone acetate] to `C[C@]12CCC(=O)C=C1CC[C@@H]1[C@@H]2[C@@H](O)C[C@@]2(C)[C@H]1CC[C@]2(O)C(=O)CO` [Hydrocortisone (cortisol), Hydrocortisone], the Equivalent dose falls from 25 mg to 20 mg.

Compared with `C[C@]12C=CC(=O)C=C1CC[C@@H]1[C@@H]2[C@@H](O)C[C@@]2(C)[C@H]1CC[C@]2(O)C(=O)CO` [Prednisolone], `C[C@]12C=CC(=O)C=C1CC[C@H]1[C@@H]3C[C@@H](O)[C@](O)(C(=O)CO)[C@@]3(C)C[C@H](O)[C@@]12F` [Triamcinolone] is lower in Equivalent dose: 5 mg for the first, 4 mg for the second.
